The source of these data is ChEMBL document CHEMBL3526109 (Drug Metab Dispos, 2011).

Common to all, as to details: in vivo
The nature of data set [1]: Drug excretion in bile duct-cannulated rat bile treated with [14C]brivanib alaninate at 100 mg/kg, po administered as single dose via gavage by HPLC analysis. In kind it is ADME, organism-based.
Data set [2] can be described thus: Drug excretion in bile duct-cannulated cynomolgus monkey bile treated with [14C]brivanib alaninate at 10 mg/kg, po administered as single dose via gavage by HPLC analysis. Type of data set: ADME, organism-based, Macaca fascicularis.
Data set [3] deals with Plasma. As to the kind of experiment: Drug level in cynomolgus monkey plasma assessed as compound formation treated with [14C]brivanib alaninate at 10 mg/kg, po administered as single dose via gavage measured after 6 hrs by HPLC analysis. Type of data set: ADME, organism-based, Macaca fascicularis.
In data set [4] the test system is Plasma. Nature of the data set: Drug level in human plasma assessed as compound formation treated with [14C]brivanib alaninate at 800 mg, po administered as single dose via gavage measured after 8 hrs by HPLC analysis. In kind it is ADME, organism-based.
The subject of data set [5] is Plasma. Nature of the data set: Drug level in human plasma assessed as compound formation treated with [14C]brivanib alaninate at 800 mg, po administered as single dose via gavage measured after 2 hrs by HPLC analysis. In kind it is ADME, organism-based.
A short description of data set [6]: Drug excretion in cynomolgus monkey feces treated with [14C]brivanib alaninate at 10 mg/kg, po administered as single dose via gavage by HPLC analysis. In kind it is ADME, organism-based, Macaca fascicularis.
For data set [7], the system named is Plasma. Nature of the data set: Drug level in human plasma assessed as compound formation treated with [14C]brivanib alaninate at 800 mg, po administered as single dose via gavage measured after 4 hrs by HPLC analysis. In kind it is ADME, organism-based.
The subject of data set [8] is Plasma. As to the kind of experiment: Drug level in cynomolgus monkey plasma assessed as compound formation treated with [14C]brivanib alaninate at 10 mg/kg, po administered as single dose via gavage measured after 12 hrs by HPLC analysis. Type of data set: ADME, organism-based, Macaca fascicularis.
Data set [9] has as its system Plasma. As to the kind of experiment: Drug level in human plasma assessed as compound formation treated with [14C]brivanib alaninate at 800 mg, po administered as single dose via gavage measured after 12 hrs by HPLC analysis. Type of data set: ADME, organism-based.
The subject of data set [10] is Plasma. As to the kind of experiment: Drug level in Sprague-Dawley rat plasma assessed as compound formation treated with [14C]brivanib alaninate at 100 mg/kg, po administered as single dose via gavage measured after 1 hr by HPLC analysis. Type of data set: ADME, organism-based.
In data set [11] the test system is Plasma. Nature of the data set: Drug level in cynomolgus monkey plasma assessed as compound formation treated with [14C]brivanib alaninate at 10 mg/kg, po administered as single dose via gavage measured after 2 hrs by HPLC analysis. In kind it is ADME, organism-based, Macaca fascicularis.
Data set [12] deals with Plasma. Nature of the data set: Drug level in human plasma assessed as compound formation treated with [14C]brivanib alaninate at 800 mg, po administered as single dose via gavage measured after 1 hr by HPLC analysis. In kind it is ADME, organism-based.
Data set [13] has as its system Rattus norvegicus. As to the kind of experiment: Drug uptake in Sprague-Dawley rat plasma treated with [14C]brivanib alaninate assessed as AUC (0 to 6 hrs) of total radio activity at 100 mg/kg, po administered as single oral dose by HPLC analysis. Type of data set: ADME, organism-based.
Data set [14] concerns Rattus norvegicus. Nature of the data set: AUC (0 to 6 hrs) Sprague-Dawley rat plasma treated with [14C]brivanib alaninate at 100 mg/kg, po administered as single oral dose by HPLC analysis. Type of data set: ADME, organism-based.
In data set [15] the test system is Cynomolgus monkey. Nature of the data set: Drug uptake in cynomolgus monkey plasma treated with [14C]brivanib alaninate assessed as AUC (0 to 12 hrs) of total radio activity at 10 mg/kg, po administered as single oral dose by HPLC analysis. In kind it is ADME, organism-based, Macaca fascicularis.
Data set [16] is described as follows: Drug excretion in Sprague-Dawley rat feces treated with [14C]brivanib alaninate at 100 mg/kg, po administered as single dose via gavage by HPLC analysis. In kind it is ADME, organism-based.
In data set [17] the test system is Plasma. Nature of the data set: Drug level in Sprague-Dawley rat plasma assessed as compound formation treated with [14C]brivanib alaninate at 100 mg/kg, po administered as single dose via gavage measured after 2 hrs by HPLC analysis. Type of data set: ADME, organism-based.
For data set [18], the system named is Homo sapiens. Nature of the data set: Drug uptake in human plasma treated with [14C]brivanib alaninate assessed as AUC (0 to 12 hrs) of total radio activity at 800 mg, po administered as single oral dose by HPLC analysis. Type of data set: ADME, organism-based.
The nature of data set [19]: Drug excretion in human urine treated with [14C]brivanib alaninate at 800 mg, po administered as single dose […] by HPLC analysis. In kind it is ADME, organism-based.
The test system of data set [20] is Plasma. As to the kind of experiment: Drug level in cynomolgus monkey plasma assessed as compound formation treated with [14C]brivanib alaninate at 10 mg/kg, po administered as single dose via gavage measured after 4 hrs by HPLC analysis. Type of data set: ADME, organism-based, Macaca fascicularis.
The test system of data set [21] is Plasma. Nature of the data set: Drug level in cynomolgus monkey plasma assessed as compound formation treated with [14C]brivanib alaninate at 10 mg/kg, po administered as single dose via gavage measured after 1 hr by HPLC analysis. Type of data set: ADME, organism-based, Macaca fascicularis.
The test system of data set [22] is Plasma. Nature of the data set: Drug level in Sprague-Dawley rat plasma assessed as compound formation treated with [14C]brivanib alaninate at 100 mg/kg, po administered as single dose via gavage measured after 6 hrs by HPLC analysis. In kind it is ADME, organism-based.
Data set [23] has as its system Homo sapiens. As to the kind of experiment: AUC (0 to 12 hrs) human plasma treated with [14C]brivanib alaninate at 800 mg, po administered as single oral dose by HPLC analysis. Type of data set: ADME, organism-based.
A short description of data set [24]: Drug level in Sprague-Dawley rat urine treated with [14C]brivanib alaninate at 100 mg/kg, po administered as single dose via gavage by mass spectrometry. Type of data set: ADME, organism-based.
The nature of data set [25]: Drug excretion in human feces treated with [14C]brivanib alaninate at 800 mg, po administered as single dose […] by HPLC analysis. Type of data set: ADME, organism-based.
Data set [26] is described as follows: Drug excretion in cynomolgus monkey urine treated with [14C]brivanib alaninate at 10 mg/kg, po administered as single dose via gavage by HPLC analysis. Type of data set: ADME, organism-based, Macaca fascicularis.
Data set [27] concerns Cynomolgus monkey. As to the kind of experiment: AUC (0 to 12 hrs) cynomolgus monkey plasma treated with [14C]brivanib alaninate at 10 mg/kg, po administered as single oral dose by HPLC analysis. Type of data set: ADME, organism-based, Macaca fascicularis.

On to `Cc1c(OC[C@@H](C)OS(=O)(=O)O)cn2ncnc(Oc3ccc4[nH]c(CO)cc4c3F)c12`, for which the Compound recovery in [1] is on record as 1%; in data set [2] it was 10.3%; in the data set with Plasma [3], 7.9%; in the data set on Plasma [4], 1.7%; in the data set on Plasma [5], 2.9%; in data set [6], 2.4%. The Compound recovery in the data set with Plasma [7] worked out at 3.6%; with Plasma [8] it was 3%; in the data set with Plasma [9], 4.1%; with Plasma [10] it was 5.8%; in the data set on Plasma [11] it was 1.5%; in the data set on Plasma [12], 0.7%. The Compound recovery is given as 4.8% in [16]; 3.1% in the data set with Plasma [17]; 3.6% in data set [19]; 3.5% with Plasma [20]; 3% in the data set with Plasma [21]; 4.3% in the data set with Plasma [22]. Besides, the Compound recovery entry in [24] was “metabolite_detected”; in data set [25], 8.3%; in data set [26], 4.9%. The figures for the “AUC metabolite/AUC radiolabel” value in the data set on Rattus norvegicus [13], in the data set on Cynomolgus monkey [15] and in the data set with Homo sapiens [18] were 3.9%, 4.7% and 1.8%, respectively. The values for the AUC with Rattus norvegicus [14], in the data set on Homo sapiens [23] and with Cynomolgus monkey [27] were 5443.1 ugequiv/l.hr, 1202.5 ugequiv/l.hr and 3272.2 ugequiv/l.hr, respectively.
With `Cc1cc2c(F)c(Oc3ncnn4cc(OCC(=O)O)c(C)c34)ccc2[nH]1`, the Compound recovery was 1.4% in [1]; “metabolite_not_detected” in data set [2]; 2.6% in the data set with Plasma [3]; “metabolite_not_detected” in the data set on Plasma [4]; “metabolite_not_detected” with Plasma [5]; 0.5% in [6]. The Compound recovery entry in the data set with Plasma [7] was “metabolite_not_detected”; in the data set with Plasma [8], 3.3%; in the data set with Plasma [9], “metabolite_not_detected”; in the data set with Plasma [10], 4.7%; in the data set on Plasma [11], 1.7%; with Plasma [12] it was “metabolite_not_detected”. Moreover, the Compound recovery in [16] was 1.8%; with Plasma [17] it was 6.4%; in [19] it was “metabolite_not_detected”; with Plasma [20], 2.7%; with Plasma [21] it was 0.9%; in the data set on Plasma [22], 6%. Also, the Compound recovery entry in data set [24] is listed as “metabolite_detected”; in data set [25] it was “metabolite_not_detected”; in data set [26], 0.2%.
